What all share (type): biochemical
Assay [1] has as its target LRRK2 G2019S (Homo sapiens (Human), UniProt Q5S007, G2019S). Description: LRRK2 G2019S Kinase Assay. The note with it: 10 μM ATP. On the procedure: Procedure: Enzyme was incubated with substrate peptide in reaction buffer in the presence and absence of test compounds or Staurosporine. All additions were done on ice, followed by the addition of ATP mix. Wells were uniformly mixed using an Eppendorff plate shaker and incubated at 30° C. for 20 min, and stopped by the addition of 5 μl of 3% phosphoric acid. Volume was increased to 100 μl by adding 0.8% phosphoric acid which was then transferred to PC filter mats (Millipore), pre-equilibrated with 70% ethanol and water. Plates were washed thrice with 100 μl 0.8% phosphoric acid and dried for an hour at 60° C. 100 μl scintillation fluid was added into each well and reading taken in Perkin Elmer TOPCOUNT beta counter. […] A validation EC50 curve was generated by plotting CPM for each Staurosporine concentration on y-axis against the Log concentration of Staurosporine (nM) on the x-axis followed by a best fit curve through the points.
After 1 hour Kinase Reaction incubation, 5 μL of Detection Mix was added.

Assay [2] has as its target LRRK2 (Homo sapiens (Human), UniProt Q5S007). The assay is described as follows: LRRK2 Kinase Assay. As to conditions: 10 μM ATP. How it is done:
(§1) Briefly, specific kinase/substrate pairs along with required cofactors were prepared in reaction buffer; 20 mM Hepes (pH 7.5), 10 mM MgCl2, 1 mM EGTA, 0.02% Brij35, 0.02 mg/ml BSA, 0.1 mM Na3VO4, 2 mM DTT, 1% DMSO. Compounds were delivered into the reaction, followed ˜20 min later by addition of a mixture of ATP (Sigma) and 33P ATP (PerkinElmer) to a final concentration of 10 μM. […] IC50 values and curve fits were obtained using Prism (GraphPad Software). Kinome tree representations were prepared using Kinome Mapper (http://www.reactionbiology.com/apps/kinome/mapper/Launch Kinome.htm).
For the wild type LRRK the 2×LRRK2/ERM (LRRKtide) mixture was prepared in 50 mM Tris pH 8.5, 0.01% BRIJ-35, 10 mM MgCl2, 1 mM EGTA, 0.02% NaN3. […] After 1 hour Kinase Reaction incubation, 5 μL of Detection Mix was added.

The target in assay [3] is DYRK1A (Homo sapiens (Human), UniProt Q13627). The assay is described as follows: In vitro DYRK1A inhibition assay. On the procedure: as §1
The 2×DYRK1A/Ser/Thr 18 mixture was prepared in 50 mM HEPES pH 7.5, 0.01% BRIJ-35, 10 mM MgCl2, 1 mM EGTA.

In general, IC50 refers to the concentration that inhibits the measured activity by half.

Molecules are shown by their SMILES. Where only a bound is given, the exact number is not on record here.

LRRK2 G2019S, sequence (Q5S007 970-2527 G2019S): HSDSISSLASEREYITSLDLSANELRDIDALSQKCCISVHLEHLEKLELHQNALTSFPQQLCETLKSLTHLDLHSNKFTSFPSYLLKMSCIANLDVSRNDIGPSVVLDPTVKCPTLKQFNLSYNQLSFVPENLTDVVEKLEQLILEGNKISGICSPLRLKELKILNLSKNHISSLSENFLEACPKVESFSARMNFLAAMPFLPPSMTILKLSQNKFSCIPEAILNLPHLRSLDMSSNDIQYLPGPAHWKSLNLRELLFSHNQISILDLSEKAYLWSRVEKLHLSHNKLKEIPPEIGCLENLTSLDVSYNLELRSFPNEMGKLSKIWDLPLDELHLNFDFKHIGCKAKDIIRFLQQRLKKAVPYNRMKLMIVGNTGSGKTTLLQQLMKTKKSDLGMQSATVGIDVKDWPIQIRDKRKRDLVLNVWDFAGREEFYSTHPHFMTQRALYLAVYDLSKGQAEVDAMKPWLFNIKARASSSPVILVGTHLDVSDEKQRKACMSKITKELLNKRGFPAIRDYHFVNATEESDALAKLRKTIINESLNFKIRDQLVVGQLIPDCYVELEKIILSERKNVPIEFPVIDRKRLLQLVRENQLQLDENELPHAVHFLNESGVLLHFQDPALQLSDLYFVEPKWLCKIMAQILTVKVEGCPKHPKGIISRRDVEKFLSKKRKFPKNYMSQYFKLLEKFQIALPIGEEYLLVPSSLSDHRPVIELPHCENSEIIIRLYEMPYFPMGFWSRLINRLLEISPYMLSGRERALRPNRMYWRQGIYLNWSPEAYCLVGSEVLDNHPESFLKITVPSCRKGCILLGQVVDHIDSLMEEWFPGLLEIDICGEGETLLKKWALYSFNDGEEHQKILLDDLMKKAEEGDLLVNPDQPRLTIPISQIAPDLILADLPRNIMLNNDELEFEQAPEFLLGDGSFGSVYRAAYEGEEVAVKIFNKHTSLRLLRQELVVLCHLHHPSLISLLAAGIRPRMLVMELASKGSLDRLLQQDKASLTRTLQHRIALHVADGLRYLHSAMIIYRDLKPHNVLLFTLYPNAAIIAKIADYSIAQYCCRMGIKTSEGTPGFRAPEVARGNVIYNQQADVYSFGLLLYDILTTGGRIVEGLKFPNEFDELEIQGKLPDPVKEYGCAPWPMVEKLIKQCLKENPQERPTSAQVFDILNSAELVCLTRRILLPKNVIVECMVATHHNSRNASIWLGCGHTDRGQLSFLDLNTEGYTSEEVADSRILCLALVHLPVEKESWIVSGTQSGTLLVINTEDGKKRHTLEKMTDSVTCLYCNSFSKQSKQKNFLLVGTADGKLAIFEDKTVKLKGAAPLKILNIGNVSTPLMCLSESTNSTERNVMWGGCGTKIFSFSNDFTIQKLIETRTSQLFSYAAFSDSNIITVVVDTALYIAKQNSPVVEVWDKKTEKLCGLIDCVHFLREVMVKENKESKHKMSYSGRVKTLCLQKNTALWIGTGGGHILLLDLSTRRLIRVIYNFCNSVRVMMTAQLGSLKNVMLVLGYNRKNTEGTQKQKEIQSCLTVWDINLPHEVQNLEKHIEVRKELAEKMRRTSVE
LRRK2, sequence (Q5S007 970-2527): as the sequence (Q5S007 970-2527 G2019S) above, with S1050G counted along it

Regarding `Cc1n[nH]c2ncc(-c3cncnc3NC3CCN(C)CC3)cc12` [Compound 19, 5-(3methyl-1H-pyrazolo[3,4-b]pyridine-5yl)-N-(1-methylpiperidine-4yl)pyrimidin-4-amine], the IC50 in assay [1] and in assay [2] was > 500 nM in each case.
Turning to `Cc1n[nH]c2ncc(NC3CCCN(Cc4ccc(F)cc4)C3)cc12` (stereo not shown) [Compound 22, N-(1-(4-fluorobenzyl)piperidine-3-yl)-3-methyl-1H-pyrazolo[3,4-b]pyridine-5-amine], the half-inhibitory concentration (IC50) in assay [3], in assay [1] and in assay [2] was > 500 nM throughout.
As for `Cc1n[nH]c2ncc(NC3CCCN(Cc4ccc(F)c(F)c4)C3)cc12` (stereo not shown) [Compound 26], the concentration for half-maximal inhibition (IC50) in assay [1] and in assay [2] was > 500 nM throughout.
Take `Cc1n[nH]c2ncc(NC3CCCN(Cc4ccc(Cl)cc4)C3)cc12` (stereo not shown) [Compound 27, N-(1-(4-Chlorobenzyl)piperidin-3-yl)-3-methyl-1H-pyrazolo[3,4-b]pyridid-5-amine]: the IC50 in assay [3], in assay [1] and in assay [2] was > 500 nM each time.
For `Cc1n[nH]c2ncc(NC3CCCN(Cc4ccc(Cl)c(Cl)c4)C3)cc12` (stereo not shown) [Compound 28, N-(1-(3,4-Chlorobenzyl)piperidin-3-yl)-3-methyl-1H-pyrazolo[3,4-b]pyridid-5-amine], the IC50 in assay [3], in assay [1] and in assay [2] was > 500 nM each time.
For `Cc1n[nH]c2ncc(-c3cncc(OCCN4CCN(C)CC4)n3)cc12` [Compound 33, 5-(6-(2-(4-methylpiperazin-1-yl)ethoxy)pyrazin-2-yl)-3-methyl-1H-pyrazolo[3,4-b]pyridine], the IC50 in assay [3], in assay [1] and in assay [2] was > 500 nM in each case.
As to `Cc1n[nH]c2ncc(-c3cncc(Cl)n3)cc12` [Compound 42, 5-(6-chloropyrazin-2-yl)-3-methyl-1H-pyrazolo[3,4-b]pyridine], the IC50 in assay [1] and in assay [2] was > 1000 nM each time.
For `Cc1n[nH]c2ncc(-c3cnccn3)cc12` [Compound 45, 3-methyl-5-(pyrazin-2-yl)-1H-pyrazolo[3,4-b]pyridine], the 50% inhibitory concentration (IC50) in assay [1] and in assay [2] was > 1000 nM throughout.
With `Cc1n[nH]c2ncc(-c3nccnc3N3CCCC3)cc12` [Compound 74, 3-methyl-5-(3-(pyrrolidin-1-yl)pyrazin-2-yl)-1H-pyrazolo[3,4-b]pyridine], the half-inhibitory concentration (IC50) in assay [1] and in assay [2] was > 1000 nM each time.
On to `Cc1n[nH]c2ncc(-c3cccc(S(=O)(=O)N(C)C)c3)cc12` [Compound 111, N, N-dimethyl-3-(3-methyl-1H-pyrazolo[3,4-b]pyridin-5-yl)benzenesulfonamide], for which the IC50 in assay [1] and in assay [2] was > 1000 nM in each case.
Take `CC(=O)Nc1cccc(-c2cnc3[nH]nc(C)c3c2)c1` [Compound 114, N-(3-(3-methyl-1H-pyrazolo[3,4-b]pyridin-5-yl)phenyl)acetamide]: the IC50 in assay [1] and in assay [2] was > 1000 nM each time.
With `Cn1cc(-c2cnc3[nH]ncc3c2)cn1` [Compound 117, 5-(1-methyl-1H-pyrazol-4-yl)-1H-pyrazolo[3,4-b]pyridine], the IC50 in assay [1] and in assay [2] was > 1000 nM in each case.
In the case of `CCOC(=O)c1cccc(-c2cnc3[nH]nc(C)c3c2)c1` [Compound 119, ethyl 3-(3-methyl-1H-pyrazolo[3,4-b]pyridin-5-yl)benzoate], the IC50 in assay [1] and in assay [2] was > 1000 nM each time.
On to `Cc1n[nH]c2ncc(-c3cccc(CN4CCN(C)CC4)c3)cc12` [Compound 123, 3-methyl-5-(3-((4-methylpiperazin-1-yl)methyl)phenyl)-1H-pyrazolo[3,4-b]pyridine], for which the IC50 in assay [1] and in assay [2] was > 1000 nM in each case.
For the molecule `CN1CC(Nc2cncc(-c3cnc4[nH]ccc4c3)n2)C1` [Compound 130, N-(1-methylazetidin-3-yl)-6-(1H-pyrrolo[2,3-b]pyridin-5-yl)pyrazin-2-amine], the IC50 in assay [1] and in assay [2] was > 500 nM in each case.
With `O=C1CN(c2cncc(-c3cnc4[nH]ccc4c3)n2)CCN1` [Compound 133, 4-(6-(1H-pyrrolo[2,3-b]pyridin-5-yl)pyrazin-2-yl)piperazin-2-one], the IC50 in assay [1] and in assay [2] was > 500 nM in each case.
Consider `O=C(c1cncc(-c2cnc3[nH]ccc3c2)n1)N1CCCCC1` [Compound 138, (6-(1H-pyrrolo[2,3-b]pyridin-5-yl)pyrazin-2-yl)(piperidin-1-yl)methanone], for which the IC50 in assay [1] and in assay [2] was > 500 nM in each case.
On to `CN1CCN(C(=O)c2cncc(-c3cnc4[nH]ccc4c3)n2)CC1` [Compound 139, (6-(1H-pyrrolo[2,3-b]pyridin-5-yl)pyrazin-2-yl)(4-methylpiperazin-1-yl)methanone], for which the IC50 in assay [1] and in assay [2] was > 1000 nM in each case.
Consider `CN1CCC(Nc2cncc(-c3cnc4[nH]ccc4c3)n2)CC1` [Compound 140, N-(1-methylpiperidin-4-yl)-6-(1H-pyrrolo[2,3-b]pyridin-5-yl)pyrazin-2-amine], for which the IC50 in assay [1] and in assay [2] was < 500 nM in each case.
`CN1CCC(Nc2cncc(-c3cnc4[nH]cc(Cl)c4c3)n2)CC1` [Compound 141, 6-(3-chloro-1H-pyrrolo[2,3-b]pyridin-5-yl)-N-(1-methylpiperidin-4-yl)pyrazin-2-amine]: the IC50 in assay [1] and in assay [2] was < 500 nM in each case.
For the molecule `C=CC(=O)Nc1cccc(-c2cnc3[nH]nc(C)c3c2)c1` [Compound 155, N-(3-(3-methyl-1H-pyrazolo[3,4-b]pyridin-5-yl)phenyl)acrylamide], the IC50 in assay [1] and in assay [2] was > 1000 nM each time.
Take `Cc1n[nH]c2ncc(-c3cccc(CC#N)c3)cc12` [Compound 158, 2-(3-(3-methyl-1H-pyrazolo[3,4-b]pyridin-5-yl)phenyl)acetonitrile]: the IC50 in assay [1] and in assay [2] was > 1000 nM throughout.
For `Cc1n[nH]c2ncc(-c3ccc(N4CCN(C)CC4)cc3)cc12` [Compound 161, 3-methyl-5-(4-(4-methylpiperazin-1-yl)phenyl)-1H-pyrazolo[3,4-b]pyridine], the IC50 in assay [1] and in assay [2] was > 1000 nM in each case.
`Cc1n[nH]c2ncc(Nc3cccc(CN4CCN(CCO)CC4)c3)cc12` [Compound 164, 2-(4-(3-((3-methyl-1H-pyrazolo[3,4-b]pyridin-5-yl)amino)benzyl)piperazin-1-yl)ethanol]: the IC50 in assay [1] and in assay [2] was > 1000 nM each time.
For the molecule `Cc1n[nH]c2ncc(Nc3ccc(CN4CCN(C)CC4)cc3)cc12` [Compound 167, 3-methyl-N-(4-((4-methylpiperazin-1-yl)methyl)phenyl)-1H-pyrazolo[3,4-b]pyridin-5-amine], the IC50 in assay [1] and in assay [2] was > 1000 nM in each case.
Regarding `Cc1n[nH]c2ncc(Nc3ccc(N4CCN(C)CC4)c(F)c3)cc12` [Compound 170, N-(3-fluoro-4-(4-methylpiperazin-1-yl)phenyl)-3-methyl-1H-pyrazolo[3,4-b]pyridin-5-amine], the IC50 in assay [1] and in assay [2] was > 1000 nM each time.
Consider `Cc1n[nH]c2ncc(Nc3cncc(Cl)n3)cc12` [Compound 171, N-(6-chloropyrazin-2-yl)-3-methyl-1H-pyrazolo[3,4-b]pyridin-5-amine], for which the half-inhibitory concentration (IC50) in assay [1] and in assay [2] was > 1000 nM in each case.

For the origin of these results see patent US9669028B2, “Substituted 5-(pyrazin-2-yl)-1H-pyrazolo [3, 4-B] pyridine and pyrazolo [3, 4-B] pyridine derivatives as protein kinase inhibitors” (Arrien Pharmaceuticals LLC, priority 2011, dated 2017).
